According to patent US9682995B2, “Amino-substituted isothiazoles” (BAYER PHARMA AKTIENGESELLSCHAFT, priority 2013, dated 2017):

Experiments:
Assay in all cases: Kinase Profiling (KINOMEscan)
Type in all cases: binding
[1] = target: 456 kinases (of these 395 non-mutant kinases) (Homo sapiens, UniProt P37173); settings: TGFBR2; 10 μM
[2] = target: 456 kinases (of these 395 non-mutant kinases) (Homo sapiens, UniProt P19784); settings: CSNK2A2; 10 μM
[3] = target: 456 kinases (of these 395 non-mutant kinases) (Homo sapiens, UniProt Q96D53); settings: ADCK4; 10 μM
[4] = target: 456 kinases (of these 395 non-mutant kinases) (Homo sapiens, UniProt P49674); settings: CSNK1E; 10 μM
[5] = target: 456 kinases (of these 395 non-mutant kinases) (Homo sapiens, UniProt P36888, R834Q); settings: FLT3(R834Q); 10 μM
[6] = target: 456 kinases (of these 395 non-mutant kinases) (Homo sapiens, UniProt Q9UM73); settings: ALK; 10 μM
[7] = target: 456 kinases (of these 395 non-mutant kinases) (Homo sapiens, UniProt P08069); settings: IGF1R; 10 μM
[8] = target: 456 kinases (of these 395 non-mutant kinases) (Homo sapiens, UniProt Q9UBF8); settings: PIK4CB; 10 μM
[9] = target: 456 kinases (of these 395 non-mutant kinases) (Homo sapiens, UniProt Q13976); settings: PRKG1; 10 μM
[10] = target: 456 kinases (of these 395 non-mutant kinases) (Homo sapiens, UniProt P29376); settings: LTK; 10 μM
[11] = target: 456 kinases (of these 395 non-mutant kinases) (Homo sapiens, UniProt Q9HBH9); settings: MKNK2; 10 μM
[12] = target: 456 kinases (of these 395 non-mutant kinases) (Homo sapiens, UniProt Q52WX2); settings: SBK1; 10 μM
[13] = target: 456 kinases (of these 395 non-mutant kinases) (Homo sapiens, UniProt Q9UK32); settings: 10 μM
[14] = target: 456 kinases (of these 395 non-mutant kinases) (Homo sapiens, UniProt Q12866); settings: MERTK; 10 μM
[15] = target: 456 kinases (of these 395 non-mutant kinases) (Homo sapiens, UniProt Q00532); settings: CDKL1; 10 μM
[16] = target: 456 kinases (of these 395 non-mutant kinases) (Homo sapiens, UniProt P31751); settings: AKT2; 10 μM
[17] = target: 456 kinases (of these 395 non-mutant kinases) (Homo sapiens, UniProt P09619); settings: PDGFRB; 10 μM
[18] = target: 456 kinases (of these 395 non-mutant kinases) (Homo sapiens, UniProt P54646); settings: AMPK-alpha2; 10 μM
[19] = target: 456 kinases (of these 395 non-mutant kinases) (Homo sapiens, UniProt Q9UIK4); settings: DAPK2; 10 μM
[20] = target: 456 kinases (of these 395 non-mutant kinases) (Homo sapiens, UniProt Q8IY84); settings: NIM1; 10 μM
[21] = target: 456 kinases (of these 395 non-mutant kinases) (Homo sapiens, UniProt Q9H4B4); settings: PLK3; 10 μM
[22] = target: 456 kinases (of these 395 non-mutant kinases) (Homo sapiens, UniProt Q9BUB5); settings: MKNK1; 10 μM
[23] = target: 456 kinases (of these 395 non-mutant kinases) (Homo sapiens, UniProt Q9UPZ9); settings: ICK; 10 μM
[24] = target: 456 kinases (of these 395 non-mutant kinases) (Homo sapiens, UniProt P07948); settings: LYN; 10 μM
[25] = target: 456 kinases (of these 395 non-mutant kinases) (Homo sapiens, UniProt P49841); settings: GSK3B; 10 μM
[26] = target: 456 kinases (of these 395 non-mutant kinases) (Homo sapiens, UniProt P49336); settings: CDK8; 10 μM
[27] = target: 456 kinases (of these 395 non-mutant kinases) (Homo sapiens, UniProt Q92630); settings: DYRK2; 10 μM
[28] = target: 456 kinases (of these 395 non-mutant kinases) (Homo sapiens, UniProt O75747); settings: PIK3C2G; 10 μM
[29] = target: 456 kinases (of these 395 non-mutant kinases) (Homo sapiens, UniProt Q9BVS4); settings: RIOK2; 10 μM
[30] = target: 456 kinases (of these 395 non-mutant kinases) (Homo sapiens, UniProt Q8NI60); settings: ADCK3; 10 μM
[31] = target: 456 kinases (of these 395 non-mutant kinases) (Homo sapiens, UniProt P48736); settings: PIK3CG; 10 μM
[32] = target: 456 kinases (of these 395 non-mutant kinases) (Homo sapiens, UniProt Q96L34); settings: MARK4; 10 μM

456 kinases (of these 395 non-mutant kinases) (Homo sapiens, UniProt Q8NI60), sequence (Q8NI60 163-647 limits assumed, change not shown): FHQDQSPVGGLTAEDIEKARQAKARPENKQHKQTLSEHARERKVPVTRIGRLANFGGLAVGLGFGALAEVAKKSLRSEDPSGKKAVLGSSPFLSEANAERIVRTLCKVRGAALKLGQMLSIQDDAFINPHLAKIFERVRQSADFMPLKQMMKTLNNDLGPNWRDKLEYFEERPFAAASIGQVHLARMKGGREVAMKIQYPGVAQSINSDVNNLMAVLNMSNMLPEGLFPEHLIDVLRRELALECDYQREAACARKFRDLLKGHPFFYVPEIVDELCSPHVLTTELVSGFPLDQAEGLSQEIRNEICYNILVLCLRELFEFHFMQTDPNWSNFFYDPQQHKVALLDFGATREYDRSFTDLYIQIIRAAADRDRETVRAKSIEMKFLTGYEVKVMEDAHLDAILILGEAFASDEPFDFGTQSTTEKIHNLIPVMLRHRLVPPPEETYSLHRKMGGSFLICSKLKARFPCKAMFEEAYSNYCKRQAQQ
456 kinases (of these 395 non-mutant kinases) (Homo sapiens, UniProt Q9UM73), sequence (Q9UM73 19-1620 limits assumed, change not shown): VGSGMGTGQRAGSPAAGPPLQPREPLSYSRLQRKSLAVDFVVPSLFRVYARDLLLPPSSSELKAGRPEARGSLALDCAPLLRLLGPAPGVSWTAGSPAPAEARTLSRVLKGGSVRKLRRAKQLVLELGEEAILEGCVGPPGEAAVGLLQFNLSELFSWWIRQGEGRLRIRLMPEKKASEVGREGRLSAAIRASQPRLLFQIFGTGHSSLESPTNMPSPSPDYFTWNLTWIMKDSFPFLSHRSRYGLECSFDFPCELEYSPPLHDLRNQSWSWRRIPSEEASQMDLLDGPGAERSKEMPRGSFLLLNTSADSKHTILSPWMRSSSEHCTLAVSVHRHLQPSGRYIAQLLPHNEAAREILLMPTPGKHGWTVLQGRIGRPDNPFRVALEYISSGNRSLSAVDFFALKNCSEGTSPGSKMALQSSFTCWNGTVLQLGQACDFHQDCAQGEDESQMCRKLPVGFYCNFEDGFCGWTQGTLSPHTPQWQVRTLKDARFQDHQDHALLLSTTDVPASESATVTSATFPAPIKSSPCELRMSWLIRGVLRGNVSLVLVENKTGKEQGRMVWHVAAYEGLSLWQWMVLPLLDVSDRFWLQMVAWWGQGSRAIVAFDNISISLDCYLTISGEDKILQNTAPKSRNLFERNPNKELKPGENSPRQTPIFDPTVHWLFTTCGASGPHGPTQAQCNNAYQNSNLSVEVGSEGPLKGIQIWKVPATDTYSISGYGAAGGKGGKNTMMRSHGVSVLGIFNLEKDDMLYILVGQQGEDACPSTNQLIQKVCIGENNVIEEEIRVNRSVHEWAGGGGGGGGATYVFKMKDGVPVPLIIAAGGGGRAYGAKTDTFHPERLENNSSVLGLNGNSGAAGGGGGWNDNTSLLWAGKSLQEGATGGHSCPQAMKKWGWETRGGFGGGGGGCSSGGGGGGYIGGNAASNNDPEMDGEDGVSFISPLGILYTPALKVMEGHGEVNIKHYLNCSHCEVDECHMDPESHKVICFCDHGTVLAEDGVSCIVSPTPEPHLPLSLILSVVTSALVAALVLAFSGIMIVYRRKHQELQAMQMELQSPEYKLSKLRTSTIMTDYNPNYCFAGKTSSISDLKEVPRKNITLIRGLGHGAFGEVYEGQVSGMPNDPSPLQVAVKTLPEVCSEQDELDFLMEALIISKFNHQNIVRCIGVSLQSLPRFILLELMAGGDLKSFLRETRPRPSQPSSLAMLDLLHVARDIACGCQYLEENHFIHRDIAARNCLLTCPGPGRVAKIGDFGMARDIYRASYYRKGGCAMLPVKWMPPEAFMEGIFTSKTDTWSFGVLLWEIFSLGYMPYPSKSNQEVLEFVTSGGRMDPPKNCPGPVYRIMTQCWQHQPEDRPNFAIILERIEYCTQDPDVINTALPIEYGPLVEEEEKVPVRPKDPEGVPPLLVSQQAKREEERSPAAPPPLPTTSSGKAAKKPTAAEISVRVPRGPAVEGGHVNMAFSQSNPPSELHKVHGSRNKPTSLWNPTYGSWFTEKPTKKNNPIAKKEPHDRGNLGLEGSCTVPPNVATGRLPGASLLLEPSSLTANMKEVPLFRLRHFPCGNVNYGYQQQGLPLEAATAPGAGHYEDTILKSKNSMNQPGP
456 kinases (of these 395 non-mutant kinases) (Homo sapiens, UniProt Q12866), sequence (Q12866 21-999 limits assumed, change not shown): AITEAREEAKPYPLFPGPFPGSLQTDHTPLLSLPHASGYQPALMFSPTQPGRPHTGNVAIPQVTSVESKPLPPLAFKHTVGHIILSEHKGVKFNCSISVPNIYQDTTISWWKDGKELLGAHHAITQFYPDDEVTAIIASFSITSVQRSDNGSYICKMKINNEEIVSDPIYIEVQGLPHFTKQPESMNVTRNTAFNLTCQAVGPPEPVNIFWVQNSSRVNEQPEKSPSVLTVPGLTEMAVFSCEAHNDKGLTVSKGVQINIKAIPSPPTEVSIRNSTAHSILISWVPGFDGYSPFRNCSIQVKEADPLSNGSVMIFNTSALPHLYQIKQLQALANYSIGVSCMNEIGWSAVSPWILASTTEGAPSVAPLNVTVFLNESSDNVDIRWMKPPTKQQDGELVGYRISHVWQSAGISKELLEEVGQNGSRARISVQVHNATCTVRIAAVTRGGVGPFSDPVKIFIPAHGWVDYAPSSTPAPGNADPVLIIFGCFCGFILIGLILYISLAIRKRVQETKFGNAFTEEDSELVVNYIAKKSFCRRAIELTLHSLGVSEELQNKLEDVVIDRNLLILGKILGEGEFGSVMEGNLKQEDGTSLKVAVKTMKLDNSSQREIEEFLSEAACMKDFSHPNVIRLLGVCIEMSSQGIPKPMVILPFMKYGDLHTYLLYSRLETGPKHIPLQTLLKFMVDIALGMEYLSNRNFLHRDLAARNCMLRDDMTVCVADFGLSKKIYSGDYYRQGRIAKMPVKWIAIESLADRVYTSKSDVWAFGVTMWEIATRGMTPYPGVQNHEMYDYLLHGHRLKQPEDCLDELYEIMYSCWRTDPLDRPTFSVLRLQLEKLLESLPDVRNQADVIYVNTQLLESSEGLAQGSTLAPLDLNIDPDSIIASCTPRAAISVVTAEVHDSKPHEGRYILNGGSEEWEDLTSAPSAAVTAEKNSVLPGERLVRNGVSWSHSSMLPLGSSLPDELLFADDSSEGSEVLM
456 kinases (of these 395 non-mutant kinases) (Homo sapiens, UniProt P29376), sequence (P29376 17-864 limits assumed, change not shown): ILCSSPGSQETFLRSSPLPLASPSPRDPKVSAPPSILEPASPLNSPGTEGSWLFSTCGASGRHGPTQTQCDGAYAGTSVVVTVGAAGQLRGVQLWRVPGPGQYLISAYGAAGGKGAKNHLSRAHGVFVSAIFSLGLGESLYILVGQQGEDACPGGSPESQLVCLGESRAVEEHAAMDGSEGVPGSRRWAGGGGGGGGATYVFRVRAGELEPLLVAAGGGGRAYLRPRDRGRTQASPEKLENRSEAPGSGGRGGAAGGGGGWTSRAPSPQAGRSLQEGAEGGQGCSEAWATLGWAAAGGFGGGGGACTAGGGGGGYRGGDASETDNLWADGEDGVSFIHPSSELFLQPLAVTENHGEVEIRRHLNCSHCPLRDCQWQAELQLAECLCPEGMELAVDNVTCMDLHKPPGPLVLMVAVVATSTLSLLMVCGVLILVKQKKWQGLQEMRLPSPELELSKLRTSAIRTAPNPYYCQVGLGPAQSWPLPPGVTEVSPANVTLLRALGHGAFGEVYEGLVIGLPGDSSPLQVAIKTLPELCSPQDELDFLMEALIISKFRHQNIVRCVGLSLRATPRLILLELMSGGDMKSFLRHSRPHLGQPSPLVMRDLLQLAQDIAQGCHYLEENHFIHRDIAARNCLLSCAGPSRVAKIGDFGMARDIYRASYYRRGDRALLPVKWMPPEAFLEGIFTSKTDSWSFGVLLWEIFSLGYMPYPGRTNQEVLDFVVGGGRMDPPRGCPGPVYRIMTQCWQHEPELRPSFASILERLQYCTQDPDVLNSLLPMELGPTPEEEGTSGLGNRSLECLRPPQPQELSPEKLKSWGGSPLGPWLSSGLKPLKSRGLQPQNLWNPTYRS
456 kinases (of these 395 non-mutant kinases) (Homo sapiens, UniProt P37173), sequence (P37173 23-567 limits assumed, change not shown): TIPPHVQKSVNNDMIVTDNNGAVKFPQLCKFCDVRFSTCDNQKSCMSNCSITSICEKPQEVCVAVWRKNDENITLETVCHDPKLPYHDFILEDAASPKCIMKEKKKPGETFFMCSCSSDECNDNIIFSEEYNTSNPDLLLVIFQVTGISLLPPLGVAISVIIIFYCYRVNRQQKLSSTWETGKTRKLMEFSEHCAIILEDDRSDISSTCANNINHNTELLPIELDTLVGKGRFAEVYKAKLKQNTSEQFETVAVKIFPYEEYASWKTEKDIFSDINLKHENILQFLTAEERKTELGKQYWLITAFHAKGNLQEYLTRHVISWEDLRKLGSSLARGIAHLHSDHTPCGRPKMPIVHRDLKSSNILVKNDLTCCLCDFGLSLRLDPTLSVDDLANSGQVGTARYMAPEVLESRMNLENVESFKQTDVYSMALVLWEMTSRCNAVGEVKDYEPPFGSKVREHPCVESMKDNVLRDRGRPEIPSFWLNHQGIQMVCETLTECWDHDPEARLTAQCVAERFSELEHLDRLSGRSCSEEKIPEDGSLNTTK
456 kinases (of these 395 non-mutant kinases) (Homo sapiens, UniProt P07948), sequence (P07948 2-512 limits assumed, change not shown): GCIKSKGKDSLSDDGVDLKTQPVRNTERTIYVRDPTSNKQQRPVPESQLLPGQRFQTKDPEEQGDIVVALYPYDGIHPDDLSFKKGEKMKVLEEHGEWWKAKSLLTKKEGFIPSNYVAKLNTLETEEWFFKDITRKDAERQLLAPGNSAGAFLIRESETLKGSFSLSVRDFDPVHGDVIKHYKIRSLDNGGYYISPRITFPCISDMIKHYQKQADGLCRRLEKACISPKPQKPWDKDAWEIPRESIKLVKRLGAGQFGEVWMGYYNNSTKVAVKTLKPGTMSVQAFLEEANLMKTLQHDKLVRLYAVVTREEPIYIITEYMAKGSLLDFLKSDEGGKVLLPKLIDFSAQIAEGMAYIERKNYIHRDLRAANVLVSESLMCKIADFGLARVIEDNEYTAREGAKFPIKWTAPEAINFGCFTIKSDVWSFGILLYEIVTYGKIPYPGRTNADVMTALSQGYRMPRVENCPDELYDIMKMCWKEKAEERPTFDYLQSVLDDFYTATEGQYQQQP

Compound: CCc1ccccc1NC(=O)c1c(C)nsc1Nc1cnc2cc(F)ccc2n1 [Example 20, N-(2-Ethylphenyl)-5-[(6-fluoroquinoxalin-2-yl)amino]-3-methyl-1,2-thiazole-4-carboxamide]
- % Ctrl @ 10 μM [1]: 100 % Ctrl
- % Ctrl @ 10 μM [2]: 100 % Ctrl
- % Ctrl @ 10 μM [3]: 100 % Ctrl
- % Ctrl @ 10 μM [4]: 74 % Ctrl
- % Ctrl @ 10 μM [5]: 93 % Ctrl
- % Ctrl @ 10 μM [6]: 77 % Ctrl
- % Ctrl @ 10 μM [7]: 100 % Ctrl
- % Ctrl @ 10 μM [8]: 78 % Ctrl
- % Ctrl @ 10 μM [9]: 90 % Ctrl
- % Ctrl @ 10 μM [10]: 68 % Ctrl
- % Ctrl @ 10 μM [11]: 100 % Ctrl
- % Ctrl @ 10 μM [12]: 91 % Ctrl
- % Ctrl @ 10 μM ([13]; RSK4(Kin.Dom.1-N-terminal)): 100 % Ctrl
- % Ctrl @ 10 μM ([13]; RSK4(Kin.Dom.2-C-terminal)): 75 % Ctrl
- % Ctrl @ 10 μM [14]: 98 % Ctrl
- % Ctrl @ 10 μM [15]: 100 % Ctrl
- % Ctrl @ 10 μM [16]: 90 % Ctrl
- % Ctrl @ 10 μM [17]: 89 % Ctrl
- % Ctrl @ 10 μM [18]: 100 % Ctrl
- % Ctrl @ 10 μM [19]: 73 % Ctrl
- % Ctrl @ 10 μM [20]: 77 % Ctrl
- % Ctrl @ 10 μM [21]: 92 % Ctrl
- % Ctrl @ 10 μM [22]: 100 % Ctrl
- % Ctrl @ 10 μM [23]: 100 % Ctrl
- % Ctrl @ 10 μM [24]: 76 % Ctrl
- % Ctrl @ 10 μM [25]: 100 % Ctrl
- % Ctrl @ 10 μM [26]: 100 % Ctrl
- % Ctrl @ 10 μM [27]: 96 % Ctrl
- % Ctrl @ 10 μM [28]: 86 % Ctrl
- % Ctrl @ 10 μM [29]: 77 % Ctrl
- % Ctrl @ 10 μM [30]: 64 % Ctrl
- % Ctrl @ 10 μM [31]: 99 % Ctrl
- % Ctrl @ 10 μM [32]: 100 % Ctrl
